Twelve compounds from patent publication US20080269240A1, “Novel Adenine Compound” (priority 2005, published 2008) can be followed below.

For orientation: EC50 means the concentration at which the effect is half-maximal.

The assay addresses T1, human TLR7 (Homo sapiens, UniProt Q9NYK1).
T1 construct: expressed in transfected cells; host or cells: HEK293 (hTLR7/seap-293)
T1 sequence (Q9NYK1 27-1049): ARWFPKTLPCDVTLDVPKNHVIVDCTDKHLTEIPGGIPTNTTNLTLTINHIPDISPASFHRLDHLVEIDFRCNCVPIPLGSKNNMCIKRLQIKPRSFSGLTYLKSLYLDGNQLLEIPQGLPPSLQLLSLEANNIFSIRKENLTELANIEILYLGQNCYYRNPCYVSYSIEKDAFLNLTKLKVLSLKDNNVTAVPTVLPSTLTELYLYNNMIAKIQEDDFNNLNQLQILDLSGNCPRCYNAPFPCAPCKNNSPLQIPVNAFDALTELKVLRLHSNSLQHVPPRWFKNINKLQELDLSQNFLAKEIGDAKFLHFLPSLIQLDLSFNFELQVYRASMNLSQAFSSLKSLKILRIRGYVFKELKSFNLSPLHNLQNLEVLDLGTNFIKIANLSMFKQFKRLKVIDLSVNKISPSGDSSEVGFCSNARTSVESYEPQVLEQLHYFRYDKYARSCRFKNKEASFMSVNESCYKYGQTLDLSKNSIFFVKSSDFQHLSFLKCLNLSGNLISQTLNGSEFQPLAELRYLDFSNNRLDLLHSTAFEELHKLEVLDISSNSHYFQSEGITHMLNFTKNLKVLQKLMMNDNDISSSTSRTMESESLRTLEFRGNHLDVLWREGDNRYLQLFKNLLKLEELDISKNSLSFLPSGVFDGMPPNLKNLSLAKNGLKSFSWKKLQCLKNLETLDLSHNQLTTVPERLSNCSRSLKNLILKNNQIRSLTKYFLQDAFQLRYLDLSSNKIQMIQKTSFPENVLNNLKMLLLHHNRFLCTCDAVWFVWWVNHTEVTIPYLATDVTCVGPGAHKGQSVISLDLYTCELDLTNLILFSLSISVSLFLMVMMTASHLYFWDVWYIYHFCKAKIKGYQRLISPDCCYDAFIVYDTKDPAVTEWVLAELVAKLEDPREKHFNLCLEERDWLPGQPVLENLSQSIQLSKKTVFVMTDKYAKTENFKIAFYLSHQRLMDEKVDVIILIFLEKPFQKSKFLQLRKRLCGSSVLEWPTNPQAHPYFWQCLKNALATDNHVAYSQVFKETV
The assay is described as follows: Human TLR7 reporter assay (NF-kB-SEAP) in HEK293 cells. Format: cell-based. The settings on record: HEK293 cells stably introduced with human TLR7 plasmid and NF-kB-SEAP reporter plasmid; cultured 20 hours with compound (1 nM-10 μM); absorbance 405 nm; read-out: Human TLR7 binding activity (EC50). How it is done: Human TLR7 Reporter Assay
HEK293 cells in which human TLR7 or rat TLR7 plasmid and reporter plasmid (NF-kB-SEAP) are stably introduced are dispersed in DMEM broth (10% FBS, 1% NEAA, 10 ug/mL blastocidin S HCl, 100 ug/mL Zeocin), and were seeded to 96 well plate per 90 μl/well (hTLR7/seap-293: 20000 cells/well, rTLR7/seap-293:25000 cells/well).
Test compound (DMSO stock solution (2 μl) was diluted with the broth (200 μl) by 100 times) was added to the seeded cells to a 96 well plate (10 μl/well) (final concentration; 1 nM-10 μM, common ratio). After stirring by tapping side of the plate, the cells were cultured in a CO2 incubator for 20 hours. A substrate (50 μl/well) for reporter assay (substrate for SEAP, pNPP) was added to cells stimulated by test sample. Ten minutes after adding the substrate, the reaction quenching solution (4N NaOH) was added by 50 μl/well to cease enzymatic reaction. Sealing a top seal A on the plate, the absorbance was measured by a micro plate reader (405 nm).

Regarding `CCCCOc1nc(N)c2[nH]c(=O)n(CC3CCN(CCCN(C)Cc4cccc(CC(=O)OC)c4)CC3)c2n1` [Example 1, 2-Butoxy-7,8-dihydro-9-{[2-(3-{N-[(3-methoxycarbonylmethylphenyl-1-yl)methyl]-N-methylamino}propyl)piperidin-4-yl]methyl}-8-oxoadenine], the EC50 is 1620 nM.
Turning to `CCCCOc1nc(N)c2[nH]c(=O)n(CC3CCN(CCCNCc4cccc(CC(=O)OC)c4)CC3)c2n1` [Example 2], the EC50 came out at 1860 nM.
Then `CCCCOc1nc(N)c2[nH]c(=O)n(CCC3CCN(CCOc4cccc(CC(=O)OC)c4)CC3)c2n1` [Example 11, 2-Butoxy-7,8-dihydro-9-(1-{2-[3-(methoxycarbonylmethyl)phenoxy]ethyl}piperidin-4-ylethyl)-8-oxoadenine], with 187 nM; and `CCCCOc1nc(N)c2[nH]c(=O)n(CCC3CCN(CCCN(C)CCOc4cccc(CC(=O)OC)c4)CC3)c2n1` [Example 12, 2-Butoxy-7,8-dihydro-9-{1-[3-([N-methyl-N {2 [3-(methoxycarbonylmethyl)phenoxy]ethyl}]amino)propyl]piperidin-4-ylethyl}-8-oxoadenine], with 579 nM; and `COCCOc1nc(N)c2[nH]c(=O)n(CC3CCN(CC(=O)N(C)CCOc4cccc(CC(=O)OC)c4)CC3)c2n1` [Example 17, 7,8-Dihydro-2-(2-methoxyethoxy)-9-{1-[(N-(2-[3-(methoxylcarbonylmethyl)phenoxy]ethyl}-N-methyl)aminocarbonylmethyl]piperidin-4-ylmethyl}-8-oxoadenine], with 5620 nM.
In the case of `CCCCOc1nc(N)c2[nH]c(=O)n(CCC3CCN(C(=O)CN(C)CCOc4cccc(CC(=O)OC)c4)CC3)c2n1` [Example 18, 2-Butoxy-7,8-dihydro-9-(2-{1-[(N-{2-[3-(methoxylcarbonylmethyl)phenoxy]ethyl)-N-methyl)aminocarbonylmethyl]piperidin-4-yl}ethyl)-8-oxoadenine], the EC50 was 281 nM.
Then `CCCCOc1nc(N)c2[nH]c(=O)n(CC3CCN(C(=O)CN(C)CCOc4cc(CC(=O)OC)ccc4OC)CC3)c2n1` [Example 19, 2-Butoxy-7,8-dihydro-9-{1-[(N-{2-[2-methoxy-5-(methoxylcarbonylmethyl)phenoxy]ethyl}-N-methyl)aminomethylacarbonyl]piperidin-4-ylmethyl}-8-oxoadenine], with 644 nM; and `CCCCOc1nc(N)c2[nH]c(=O)n(CCCCCN3CCN(CCN(C)Cc4cccc(CC(=O)OC)c4)CC3)c2n1` [Example 20, 2-Butoxy-7,8-dihydro-9-[5-(4-{2-[N-methyl-N-(3-methoxycarbonylmethyl)benzyl]aminomethyl}piperazin-1-yl)pentyl]-8-oxoadenine], with 139 nM.
Then `CCCCOc1nc(N)c2[nH]c(=O)n(CCCCCCCN3CCN(CCN(C)Cc4cccc(CC(=O)OC)c4)CC3)c2n1` [Example 21, 2-Butoxy-7,8-dihydro-9-[7-(4-{2-[N-methyl-N-(3-methoxycarbonylmethyl)benzyl]aminomethyl}piperazin-1-yl)heptyl]-8-oxoadenine], with 449 nM; and `CCCCOc1nc(N)c2[nH]c(=O)n(CCCCCN3CCN(CCOc4cccc(CC(=O)OC)c4)CC3)c2n1` [Example 22], with 198 nM; and `CCCCOc1nc(N)c2[nH]c(=O)n(CCCCCCCN3CCN(CCOc4cccc(CC(=O)OC)c4)CC3)c2n1` [Example 23, 2-Butoxy-7,8-dihydro-9-(7-{4-[2-(3-methoxycarbonylmethylphenyloxy)ethyl]piperazin-1-yl}heptyl)-8-oxoadenine], with 74.5 nM.
For `CCCCOc1nc(N)c2[nH]c(=O)n(CCCCN3CCC(Oc4cccc(CC(=O)OC)c4)CC3)c2n1` [Example 29], the EC50 was 713 nM.
